{
  "source": "paper PMC12495443",
  "about": "“Developing inhibitors of the guanosine triphosphate hydrolysis accelerating activity of Regulator of G protein Signaling-14 [drawing 1]” (The Journal of Biological Chemistry, 2025)",
  "biological_target": "T1, RGS14 RGS-box (GAP activity on wild-type Gαi1) (Homo sapiens, UniProt O43566)",
  "T1 sequence (O43566 67-184 limits assumed)": "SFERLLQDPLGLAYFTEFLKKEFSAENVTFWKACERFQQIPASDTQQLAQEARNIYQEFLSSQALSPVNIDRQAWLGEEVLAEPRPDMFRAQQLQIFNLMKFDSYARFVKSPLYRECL",
  "experiment": "Single-turnover [γ-33P]GTP hydrolysis assay of RGS-box GAP activity",
  "assay_type": "biochemical",
  "details": "wild-type Gαi1, concentration-dependent",
  "source_text": "To further evaluate the functional activity of these triazolothiadiazine derivatives, and especially to eliminate concerns of misascribing GAP-inhibitory activity to potential assay interference, we tested two representative compounds—Z55660043 and Z55627844—in the gold-standard single-turnover radioactive GTP hydrolysis assay ([7], [58]) (Fig. 6).\nThe single-turnover radiolabeled-GTP hydrolysis assay is the gold standard assay for RGS-box GAP activity, first described using [γ -^32P]GTP by Berman et al. ([7]) and recently modified for modern performance ([91], [92], [93], [94]) to use readily available [γ-^33P]GTP substrate and perchloric acid quenching. The assay was performed by first pre-loading wild-type (WT) Gα protein (i.e., 750 nM purified, recombinant, wild-type-sequence human Gαi1 protein) with a slight excess (1 μM) of [γ-^33P]GTP for 15 min at 30 °C. Assay initiation involved adding purified recombinant RGS protein previously pre-incubated for 30 min at 30 °C with a candidate inhibitor. […] Supernatant aliquots were then added to liquid scintillation fluid and [^33P]-Pi content (i.e., hydrolyzed GTP) was quantified with a scintillation counter with an appropriate β-transmission window.",
  "data": [
    {"smiles": "COc1ccc(OCc2nnc3n2N=C(c2ccc(OC)c(OC)c2)CS3)cc1", "note": "[Z55660043, 6-(3,4-dimethoxyphenyl)-3-[(4-methoxy-phenoxy)methyl]-5H-[1,2,4]triazolo[3,4-b][1,3,4]thiadiazine]", "values": [
      {"measurement": "inhibition of RGS14 RGS-box-mediated acceleration of [γ-33P]GTP hydrolysis", "value": "inhibit RGS14 RGS-box-mediated acceleration"}
    ]}
  ]
}
